In US20060069132A1, “Azolecarboxamide herbicides” (priority 2004, published 2006):

Assays:
[1] = system: barnyardgrass; assay: Test B pre-/postemergence herbicide test; format: in vivo, Echinochloa crus-galli
In short: (§1)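 Pre: seeds sown, then sprayed. Post: 1–4-leaf plants (2–18 cm) sprayed at the same time. Paddy: flooded, treated at 2-leaf stage. Formulation: non-phytotoxic solvent with surfactant. Greenhouse 13–15 days; visual 0–100 score relative to controls.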

[2] = system: cocklebur; assay: Test B pre-/postemergence herbicide test; format: in vivo, Xanthium strumarium
In short: as §1

[3] = system: corn; assay: Test B pre-/postemergence herbicide test; format: in vivo, Zea mays
In short: (§2)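 Visual rating, 0 (no effect) to 100 (complete control), versus untreated controls after 13–15 d in greenhouse. Pre- and postemergence applications (postemergence plants 2–18 cm, 1–4 leaves); flooded paddy arm at 2-leaf stage. Compounds in non-phytotoxic solvent plus surfactant.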

[4] = system: giant foxtail; assay: Test B pre-/postemergence herbicide test; format: in vivo, Setaria faberi
In short: as §2

[5] = system: lambsquarters; assay: Test B pre-/postemergence herbicide test; format: in vivo, Chenopodium album
In short: as §2

[6] = system: morningglory; assay: Test B pre-/postemergence herbicide test; format: in vivo, Ipomoea coccinea
In short: as §1

[7] = system: pigweed; assay: Test B pre-/postemergence herbicide test; format: in vivo, Amaranthus retroflexus
In short: as §2

[8] = system: velvetleaf; assay: Test B pre-/postemergence herbicide test; format: in vivo, Abutilon theophrasti
In short: as §2

[9] = system: blackgrass; assay: Test B postemergence herbicide test; format: in vivo, Alopecurus myosuroides
In short: (§3)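 Read-out: visual comparison with controls, scored 0 to 100, where 100 means complete control and 0 no effect. Formulated chemicals were applied postemergence to plants 2–18 cm tall (1- to 4-leaf), or to flooded-paddy plants at the 2-leaf stage, then held 13 to 15 days under glass.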

[10] = system: wheat; assay: Test B postemergence herbicide test; format: in vivo, Triticum aestivum; design: key to Wheat plant response rating: 0 = no effect, 100 = complete control
In short: (§4)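 Each value is a visual 0–100 response rating taken against controls 13 to 15 days after treatment in the greenhouse. Plants received formulated chemical postemergence at the 1- to 4-leaf stage or, in flooded paddy, at the 2-leaf stage.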

[11] = system: wild oat; assay: Test B postemergence herbicide test; format: in vivo, Avena fatua
In short: as §4

[12] = system: rice; assay: Test B flooded paddy test; format: in vivo, Oryza sativa; settings: 1000 g ai/ha, scale 0 to 100 (0 no effect, 100 complete control)
In short: as §3

[13] = system: small flower umbrella sedge; assay: Test B flooded paddy test; format: in vivo, Cyperus difformis; settings: 1000 g ai/ha, scale 0 to 100 (0 no effect, 100 complete control)
In short: as §3

[14] = system: ducksalad; assay: Test B flooded paddy test; format: in vivo, Heteranthera limosa; settings: 1000 g ai/ha, scale 0 to 100 (0 no effect, 100 complete control)
In short: as §3

[15] = system: barnyardgrass; assay: Test B flooded paddy test; format: in vivo, Echinochloa crus-galli; settings: 1000 g ai/ha, scale 0 to 100 (0 no effect, 100 complete control)
In short: as §3

[16] = 500 g ai/ha; visual rating 0-100, 0 no effect, 100 complete control; preemergence
[17] = postemergence, 125 g ai/ha; visual rating, scale 0 (no effect) to 100 (complete control)
[18] = postemergence, 500 g ai/ha; visual rating, scale 0 (no effect) to 100 (complete control)
[19] = preemergence, 125 g ai/ha; 0 to 100 scale, 0 is no effect, 100 is complete control
[20] = 125 g ai/ha; 0 = no effect, 100 = complete control; preemergence
[21] = 500 g ai/ha; visual rating, 0 = no effect, 100 = complete control; preemergence
[22] = postemergence, 500 g ai/ha; scale 0 to 100, 0 is no effect, 100 is complete control
[23] = 125 g ai/ha; visual rating, scale 0 (no effect) to 100 (complete control); postemergence

Compound: CCCCOc1cccc(NC(=O)c2cc(C(C)(C)C)nn2CC)c1 [Compound 137]
- Plant response rating, Barnyardgrass [1, 16]: 70
- Barnyardgrass plant response rating [1, 17]: 30
- Barnyardgrass plant response rating [1, 18]: 40
- Plant response rating, Barnyardgrass [1, 19]: 10
- Plant response rating, Cocklebur [2, 16]: 0
- Cocklebur plant response rating [2, 17]: 50
- Cocklebur plant response rating [2, 18]: 100
- Plant response rating, Cocklebur [2, 19]: 0
- Plant response rating, Corn [3, 16]: 10
- Corn plant response rating [3, 17]: 10
- Corn plant response rating [3, 18]: 20
- Plant response rating, Corn [3, 19]: 10
- Plant response rating, Foxtail, Giant [4, 16]: 80
- Foxtail, Giant plant response rating [4, 17]: 10
- Foxtail, Giant plant response rating [4, 18]: 20
- Plant response rating, Foxtail, Giant [4, 19]: 40
- Plant response rating, Lambsquarters [5, 16]: 80
- Lambsquarters plant response rating [5, 17]: 80
- Lambsquarters plant response rating [5, 18]: 80
- Plant response rating, Lambsquarters [5, 19]: 10
- Plant response rating, Morningglory [6, 16]: 20
- Morningglory plant response rating [6, 17]: 0
- Morningglory plant response rating [6, 18]: 60
- Plant response rating, Morningglory [6, 19]: 0
- Plant response rating, Pigweed [7, 16]: 100
- Pigweed plant response rating [7, 17]: 90
- Pigweed plant response rating [7, 18]: 100
- Plant response rating, Pigweed [7, 19]: 80
- Plant response rating, Velvetleaf [8, 16]: 60
- Velvetleaf plant response rating [8, 17]: 40
- Velvetleaf plant response rating [8, 18]: 60
- Plant response rating, Velvetleaf [8, 19]: 10
- Blackgrass plant response rating [9, 17]: 10
- Blackgrass plant response rating [9, 18]: 20
- Wheat plant response rating [10, 17]: 10
- Wheat plant response rating [10, 18]: 20
- Oat, Wild plant response rating [11, 17]: 30
- Oat, Wild plant response rating [11, 18]: 70
- Rice plant response rating ([12]; visual rating, 13 to 15 days): 20
- Sedge, Umbrella plant response rating ([13]; visual rating, 13 to 15 days): 90
- Ducksalad plant response rating ([14]; visual rating, 13 to 15 days): 30
- Barnyardgrass plant response rating ([15]; visual rating, 13 to 15 days): 20

Compound: C#CCNC(=O)c1cc(NC(=O)c2cc(C(C)(C)C)nn2CC)ccn1 [Compound 283]
- Barnyardgrass plant response rating (0 to 100 scale) [1, 20]: 0
- Plant response rating, Barnyardgrass [1, 21]: 10
- Barnyardgrass plant response rating [1, 17]: 0
- Barnyardgrass plant response rating [1, 22]: 0
- Cocklebur plant response rating (0 to 100 scale) [2, 20]: 0
- Plant response rating, Cocklebur [2, 21]: 0
- Cocklebur plant response rating [2, 17]: 0
- Cocklebur plant response rating [2, 22]: 0
- Plant response rating, Corn [3, 21]: 0
- Corn plant response rating [3, 17]: 0
- Corn plant response rating [3, 22]: 10
- Foxtail, Giant plant response rating (0 to 100 scale) [4, 20]: 0
- Plant response rating, Foxtail, Giant [4, 21]: 10
- Foxtail, Giant plant response rating [4, 17]: 0
- Foxtail, Giant plant response rating [4, 22]: 0
- Lambsquarters plant response rating (0 to 100 scale) [5, 20]: 0
- Plant response rating, Lambsquarters [5, 21]: 100
- Lambsquarters plant response rating [5, 17]: 0
- Lambsquarters plant response rating [5, 22]: 30
- Morningglory plant response rating (0 to 100 scale) [6, 20]: 0
- Plant response rating, Morningglory [6, 21]: 0
- Morningglory plant response rating [6, 17]: 0
- Morningglory plant response rating [6, 22]: 30
- Pigweed plant response rating (0 to 100 scale) [7, 20]: 0
- Plant response rating, Pigweed [7, 21]: 100
- Pigweed plant response rating [7, 17]: 0
- Pigweed plant response rating [7, 22]: 20
- Velvetleaf plant response rating (0 to 100 scale) [8, 20]: 0
- Plant response rating, Velvetleaf [8, 21]: 0
- Velvetleaf plant response rating [8, 17]: 0
- Velvetleaf plant response rating [8, 22]: 0
- Blackgrass plant response rating [9, 17]: 20
- Blackgrass plant response rating [9, 22]: 40
- Wheat plant response rating [10, 17]: 20
- Wheat plant response rating [10, 22]: 20
- Oat, Wild plant response rating [11, 17]: 0
- Oat, Wild plant response rating [11, 22]: 10
- Rice plant response rating [12]: 10
- Sedge, Umbrella plant response rating [13]: 80
- Ducksalad plant response rating [14]: 70
- Barnyardgrass plant response rating [15]: 20

Compound: CCOC(=O)c1cccc(NC(=O)c2cc(C3(C)CC3)nn2CC)c1 [Compound 295]
- Barnyardgrass plant response rating (0 to 100 scale) [1, 20]: 10
- Barnyardgrass plant response rating [1, 23]: 30
- Plant response rating, Barnyardgrass [1, 21]: 20
- Barnyardgrass plant response rating [1, 22]: 50
- Cocklebur plant response rating (0 to 100 scale) [2, 20]: 0
- Cocklebur plant response rating [2, 23]: 40
- Plant response rating, Cocklebur [2, 21]: 0
- Cocklebur plant response rating [2, 22]: 90
- Corn plant response rating (0 to 100 scale) [3, 20]: 0
- Corn plant response rating [3, 23]: 10
- Plant response rating, Corn [3, 21]: 10
- Corn plant response rating [3, 22]: 20
- Foxtail, Giant plant response rating (0 to 100 scale) [4, 20]: 10
- Foxtail, Giant plant response rating [4, 23]: 60
- Plant response rating, Foxtail, Giant [4, 21]: 70
- Foxtail, Giant plant response rating [4, 22]: 70
- Lambsquarters plant response rating (0 to 100 scale) [5, 20]: 0
- Lambsquarters plant response rating [5, 23]: 40
- Lambsquarters plant response rating [5, 22]: 60
- Morningglory plant response rating (0 to 100 scale) [6, 20]: 0
- Morningglory plant response rating [6, 23]: 50
- Plant response rating, Morningglory [6, 21]: 20
- Morningglory plant response rating [6, 22]: 100
- Pigweed plant response rating (0 to 100 scale) [7, 20]: 0
- Pigweed plant response rating [7, 23]: 100
- Pigweed plant response rating [7, 22]: 100
- Velvetleaf plant response rating [8, 23]: 70
- Plant response rating, Velvetleaf [8, 21]: 60
- Velvetleaf plant response rating [8, 22]: 100
- Blackgrass plant response rating [9, 23]: 30
- Blackgrass plant response rating [9, 22]: 40
- Wheat plant response rating [10, 23]: 20
- Wheat plant response rating [10, 22]: 30
- Oat, Wild plant response rating [11, 23]: 40
- Oat, Wild plant response rating [11, 22]: 50
- Rice plant response rating [12]: 50
- Sedge, Umbrella plant response rating [13]: 80
- Ducksalad plant response rating [14]: 70
- Barnyardgrass plant response rating [15]: 60
